Columns and labels:
[1] = molecular target: T1, human α1G T-type channels (Homo sapiens, UniProt O43497); assay: T-type calcium channel block, whole cell patch clamp (α1G); type: cell-based; conditions: HEK cells stably expressing human α1G; mainly non-inactivated protocol; values above 10 μM represented as 10 μM, values below 0.30 μM represented as 0.30 μM
T1 construct: expressed in transfected cells; host or cells: HEK 293
Outline: (§1)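 Whole-cell patch clamp was run on HEK293 cells stably expressing human α1G or α1H. Cells were held at −110 mV and given a 1 s pre-pulse to −100 mV (non-inactivating protocol) before a 50 ms test pulse to −40 mV. Compounds were applied by gravity in external solution with 0.1-0.01% DMSO, and IC50 values are in μM, capped at 10 μM.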

[2] = molecular target: T2, human α1H T-type channels (Homo sapiens, UniProt O95180); assay: T-type calcium channel block, whole cell patch clamp (α1H); type: cell-based; conditions: HEK cells stably expressing human α1H; mainly non-inactivated protocol; values above 10 μM represented as 10 μM
T2 construct: expressed in transfected cells; host or cells: HEK 293
T2 sequence (O95180 whole entry): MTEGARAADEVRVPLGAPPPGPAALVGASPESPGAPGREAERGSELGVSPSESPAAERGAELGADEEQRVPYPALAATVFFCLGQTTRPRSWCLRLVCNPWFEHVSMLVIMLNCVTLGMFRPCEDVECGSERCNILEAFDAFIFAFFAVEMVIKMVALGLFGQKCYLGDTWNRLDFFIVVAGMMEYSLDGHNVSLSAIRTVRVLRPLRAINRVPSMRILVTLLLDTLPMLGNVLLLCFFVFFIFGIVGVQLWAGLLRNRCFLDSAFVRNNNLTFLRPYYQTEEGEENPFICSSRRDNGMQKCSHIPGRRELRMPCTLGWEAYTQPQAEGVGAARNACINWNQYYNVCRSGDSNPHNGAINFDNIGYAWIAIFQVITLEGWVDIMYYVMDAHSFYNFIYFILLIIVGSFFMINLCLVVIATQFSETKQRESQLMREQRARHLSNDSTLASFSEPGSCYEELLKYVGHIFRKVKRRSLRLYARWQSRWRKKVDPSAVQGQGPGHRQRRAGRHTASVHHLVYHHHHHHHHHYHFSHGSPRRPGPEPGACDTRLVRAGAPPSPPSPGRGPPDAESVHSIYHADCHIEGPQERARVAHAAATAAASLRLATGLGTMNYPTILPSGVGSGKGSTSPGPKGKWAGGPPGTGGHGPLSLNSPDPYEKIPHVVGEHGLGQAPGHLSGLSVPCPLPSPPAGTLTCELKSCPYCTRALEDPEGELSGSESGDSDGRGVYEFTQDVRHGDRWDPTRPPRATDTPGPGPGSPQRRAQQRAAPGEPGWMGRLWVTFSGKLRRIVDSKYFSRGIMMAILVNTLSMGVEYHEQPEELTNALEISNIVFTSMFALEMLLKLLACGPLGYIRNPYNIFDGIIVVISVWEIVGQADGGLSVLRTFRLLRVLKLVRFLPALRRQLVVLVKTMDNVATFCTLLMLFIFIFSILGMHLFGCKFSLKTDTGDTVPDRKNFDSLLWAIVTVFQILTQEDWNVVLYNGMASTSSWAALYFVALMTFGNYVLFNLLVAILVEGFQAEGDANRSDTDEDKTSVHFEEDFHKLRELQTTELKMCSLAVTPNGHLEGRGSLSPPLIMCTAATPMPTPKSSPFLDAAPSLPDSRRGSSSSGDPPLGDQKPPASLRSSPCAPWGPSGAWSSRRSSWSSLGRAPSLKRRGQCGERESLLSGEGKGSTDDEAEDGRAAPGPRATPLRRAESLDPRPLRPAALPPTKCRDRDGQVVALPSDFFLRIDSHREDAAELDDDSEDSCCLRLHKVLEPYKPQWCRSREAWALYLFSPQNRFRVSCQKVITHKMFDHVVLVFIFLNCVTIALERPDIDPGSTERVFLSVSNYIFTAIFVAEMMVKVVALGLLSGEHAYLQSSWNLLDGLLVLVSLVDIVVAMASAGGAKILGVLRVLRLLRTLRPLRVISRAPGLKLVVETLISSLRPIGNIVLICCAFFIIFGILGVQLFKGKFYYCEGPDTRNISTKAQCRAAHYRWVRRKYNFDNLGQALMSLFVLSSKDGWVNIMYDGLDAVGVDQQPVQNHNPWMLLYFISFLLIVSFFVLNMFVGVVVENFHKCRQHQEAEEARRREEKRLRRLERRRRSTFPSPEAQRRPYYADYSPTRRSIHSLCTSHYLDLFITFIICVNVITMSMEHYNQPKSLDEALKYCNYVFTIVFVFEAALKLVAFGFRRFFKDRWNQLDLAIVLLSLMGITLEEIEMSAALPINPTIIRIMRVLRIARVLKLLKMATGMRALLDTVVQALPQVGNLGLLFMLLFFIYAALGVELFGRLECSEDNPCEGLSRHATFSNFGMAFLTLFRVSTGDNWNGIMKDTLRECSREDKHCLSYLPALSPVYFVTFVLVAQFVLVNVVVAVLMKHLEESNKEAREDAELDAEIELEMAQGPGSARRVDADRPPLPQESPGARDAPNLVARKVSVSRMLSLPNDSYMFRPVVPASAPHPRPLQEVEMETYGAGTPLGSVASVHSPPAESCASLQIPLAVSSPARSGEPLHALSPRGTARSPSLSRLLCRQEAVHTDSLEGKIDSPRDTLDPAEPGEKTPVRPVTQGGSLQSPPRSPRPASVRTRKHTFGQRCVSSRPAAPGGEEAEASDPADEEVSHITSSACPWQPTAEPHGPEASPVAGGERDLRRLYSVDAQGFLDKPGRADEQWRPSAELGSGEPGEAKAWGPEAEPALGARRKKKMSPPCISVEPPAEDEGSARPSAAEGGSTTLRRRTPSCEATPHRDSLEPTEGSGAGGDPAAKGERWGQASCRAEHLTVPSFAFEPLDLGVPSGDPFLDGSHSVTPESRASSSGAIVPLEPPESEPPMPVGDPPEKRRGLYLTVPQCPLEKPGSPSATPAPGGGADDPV
Outline: as §1

T1 sequence (O43497 whole entry): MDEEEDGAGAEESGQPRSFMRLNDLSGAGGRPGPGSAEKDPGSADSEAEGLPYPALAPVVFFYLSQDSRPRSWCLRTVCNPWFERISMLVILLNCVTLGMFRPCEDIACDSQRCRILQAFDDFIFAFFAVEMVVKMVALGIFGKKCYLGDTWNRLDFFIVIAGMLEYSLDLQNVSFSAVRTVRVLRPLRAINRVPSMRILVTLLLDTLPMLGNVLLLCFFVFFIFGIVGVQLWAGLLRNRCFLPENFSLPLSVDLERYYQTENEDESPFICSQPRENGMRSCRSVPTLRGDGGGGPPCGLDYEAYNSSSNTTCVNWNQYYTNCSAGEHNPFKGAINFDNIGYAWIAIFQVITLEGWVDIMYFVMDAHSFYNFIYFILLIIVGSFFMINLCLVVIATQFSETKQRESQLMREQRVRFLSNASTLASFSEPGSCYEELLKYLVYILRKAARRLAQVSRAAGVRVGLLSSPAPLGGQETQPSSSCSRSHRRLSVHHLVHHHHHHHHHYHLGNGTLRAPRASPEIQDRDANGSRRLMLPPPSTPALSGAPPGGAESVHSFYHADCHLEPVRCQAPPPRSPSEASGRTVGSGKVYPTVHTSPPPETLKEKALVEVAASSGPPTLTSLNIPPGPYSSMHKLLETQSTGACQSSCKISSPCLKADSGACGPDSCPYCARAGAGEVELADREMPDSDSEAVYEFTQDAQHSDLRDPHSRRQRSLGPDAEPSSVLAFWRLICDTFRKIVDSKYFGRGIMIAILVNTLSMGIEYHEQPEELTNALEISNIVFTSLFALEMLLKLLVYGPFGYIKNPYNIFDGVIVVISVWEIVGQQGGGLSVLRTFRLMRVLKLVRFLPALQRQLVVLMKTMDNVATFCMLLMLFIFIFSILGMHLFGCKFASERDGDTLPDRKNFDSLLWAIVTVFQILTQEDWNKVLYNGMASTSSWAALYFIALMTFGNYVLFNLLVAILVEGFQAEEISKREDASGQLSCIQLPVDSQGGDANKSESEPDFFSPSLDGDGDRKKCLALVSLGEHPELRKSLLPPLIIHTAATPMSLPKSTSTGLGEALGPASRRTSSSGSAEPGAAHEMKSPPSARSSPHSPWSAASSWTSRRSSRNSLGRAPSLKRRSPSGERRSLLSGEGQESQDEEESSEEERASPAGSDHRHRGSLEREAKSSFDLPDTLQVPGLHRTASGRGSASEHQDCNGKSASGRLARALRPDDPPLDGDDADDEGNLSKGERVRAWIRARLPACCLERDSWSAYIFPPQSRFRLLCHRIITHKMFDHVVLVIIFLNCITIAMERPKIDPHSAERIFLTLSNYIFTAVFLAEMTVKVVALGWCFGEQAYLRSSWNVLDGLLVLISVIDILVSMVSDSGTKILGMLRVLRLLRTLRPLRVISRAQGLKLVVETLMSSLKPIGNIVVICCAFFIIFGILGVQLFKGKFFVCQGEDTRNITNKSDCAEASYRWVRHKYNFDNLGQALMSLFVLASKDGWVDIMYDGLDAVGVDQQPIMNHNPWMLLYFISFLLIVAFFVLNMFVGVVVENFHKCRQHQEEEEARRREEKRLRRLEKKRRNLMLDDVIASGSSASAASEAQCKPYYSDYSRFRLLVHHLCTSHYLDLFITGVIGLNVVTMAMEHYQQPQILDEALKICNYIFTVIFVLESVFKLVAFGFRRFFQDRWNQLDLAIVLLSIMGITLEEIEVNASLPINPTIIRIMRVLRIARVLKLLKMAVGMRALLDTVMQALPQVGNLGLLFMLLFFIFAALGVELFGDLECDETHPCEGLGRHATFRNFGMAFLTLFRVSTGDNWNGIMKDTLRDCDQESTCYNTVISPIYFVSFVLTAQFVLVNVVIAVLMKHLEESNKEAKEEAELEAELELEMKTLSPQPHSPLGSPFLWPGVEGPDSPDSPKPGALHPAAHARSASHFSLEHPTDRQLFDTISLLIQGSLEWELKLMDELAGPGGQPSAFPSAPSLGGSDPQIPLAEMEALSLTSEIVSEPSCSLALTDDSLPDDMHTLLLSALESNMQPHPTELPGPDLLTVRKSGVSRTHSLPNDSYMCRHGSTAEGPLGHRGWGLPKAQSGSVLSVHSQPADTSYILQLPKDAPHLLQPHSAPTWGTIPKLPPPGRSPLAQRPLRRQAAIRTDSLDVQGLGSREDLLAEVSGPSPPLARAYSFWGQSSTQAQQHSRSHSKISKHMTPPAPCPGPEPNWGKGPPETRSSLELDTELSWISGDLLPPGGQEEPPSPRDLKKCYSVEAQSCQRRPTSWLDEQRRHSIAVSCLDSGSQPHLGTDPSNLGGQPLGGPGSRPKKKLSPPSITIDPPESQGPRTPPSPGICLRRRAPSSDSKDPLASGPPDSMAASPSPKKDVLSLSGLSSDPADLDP

Compound	IC50 [1]	IC50 [2]
C#CC(CC)(CC)NC(=O)CN[C@H]1CC[C@@H](CNC(=O)c2cc(C(F)(F)F)cc(C(F)(F)F)c2)CC1 [Compound 47, N-((cis-4-(2-(3-ethylpent-1-yn-3-ylamino)-2-oxoethylamino)cyclohexyl)methyl)-3,5-bis(trifluoromethyl)benzamide]	≤ 300 nM	10 nM
CC1CCCCN1C(=O)CN[C@H]1CC[C@@H](CNC(=O)c2cc(C(F)(F)F)cc(C(F)(F)F)c2)CC1 (stereo partly drawn) [Compound 72, N-((cis-4-(2-(2-methylpiperidin-1-yl)-2-oxoethylamino)cyclohexyl)methyl)-3,5-bis(trifluoromethyl)benzamide]	≤ 300 nM	230 nM
O=C(NC[C@H]1CC[C@H](NCc2c(F)cccc2Cl)CC1)c1cc(C(F)(F)F)cc(C(F)(F)F)c1 [Compound 34, N-((trans-4-(2-chloro-6-fluorobenzylamino)cyclohexyl)methyl)-3,5-bis(trifluoromethyl)benzamide]	≤ 300 nM	1970 nM
COc1cccc(O)c1CN[C@H]1CC[C@H](CNC(=O)c2cc(C(F)(F)F)cc(C(F)(F)F)c2)CC1 [Compound 33, N-((trans-4-(2-hydroxy-6-methoxybenzylamino)cyclohexyl)methyl)-3,5-bis(trifluoromethyl)benzamide]	≤ 300 nM	710 nM
O=C(NC[C@H]1CC[C@@H](NCc2c(O)cccc2F)CC1)c1cc(F)cc(C(F)(F)F)c1 [Compound 22, 3-fluoro-N-((cis-4-(2-fluoro-6-hydroxybenzylamino)cyclohexyl)methyl)-5-(trifluoromethyl)benzamide]	990 nM	3080 nM
CN(C(=O)CN[C@H]1CC[C@@H](CNC(=O)c2cc(C(F)(F)F)cc(C(F)(F)F)c2)CC1)C1CCCC1 [Compound 44, N-((cis-4-(2-(cyclopentyl(methyl)amino)-2-oxoethylamino)cyclohexyl)methyl)-3,5-bis(trifluoromethyl)benzamide]	≤ 300 nM	260 nM
O=C(NC[C@H]1CC[C@@H](NCc2c(F)cccc2Cl)CC1)c1cc(C(F)(F)F)cc(C(F)(F)F)c1 [Compound 13, N-((cis-4-(2-chloro-6-fluorobenzylamino)cyclohexyl)methyl)-3,5-bis(trifluoromethyl)benzamide]	460 nM	2830 nM
O=C(CN[C@H]1CC[C@H](CNC(=O)c2cc(C(F)(F)F)cc(C(F)(F)F)c2)CC1)NN1CCCCC1 [Compound 60, N-((trans-4-(2-oxo-2-(piperidin-1-ylamino)ethylamino)cyclohexyl)methyl)-3,5-bis(trifluoromethyl)benzamide]	1300 nM	1890 nM
CCN(CC)C(=O)CN[C@H]1CC[C@@H](CNC(=O)c2cc(C(F)(F)F)cc(C(F)(F)F)c2)CC1 [Compound 41, N-((cis-4-(2-(diethylamino)-2-oxoethylamino)cyclohexyl)methyl)-3,5-bis(trifluoromethyl)benzamide]	≤ 300 nM	330 nM
O=C(NC[C@H]1CC[C@@H](NCc2ncccc2O)CC1)c1cc(F)cc(C(F)(F)F)c1 [Compound 16, 3-fluoro-N-((cis-4-((3-hydroxypyridin-2-yl)methylamino)cyclohexyl)methyl)-5-(trifluoromethyl)benzamide]	4440 nM	≥ 10000 nM
O=C(NC[C@H]1CC[C@@H](NCc2cccc(F)c2O)CC1)c1cc(F)cc(C(F)(F)F)c1 [Compound 21, 3-fluoro-N-((cis-4-(3-fluoro-2-hydroxybenzylamino)cyclohexyl)methyl)-5-(trifluoromethyl)benzamide]	840 nM	4580 nM

The next lines start with the values.

IC50 [1]	IC50 [2]	Compound
480 nM	≥ 10000 nM	Cc1ccc(-c2csc(NC(=O)C[C@H]3CC[C@H](NCC(O)(C(F)(F)F)C(F)(F)F)CC3)n2)cc1 [Compound 151, N-(4-p-tolylthiazol-2-yl)-2-(trans-4-(3,3,3-trifluoro-2-hydroxy-2-(trifluoromethyl)propylamino)cyclohexyl)acetamide]
410 nM	780 nM	CC(C)(C)OC(=O)NCCN[C@H]1CC[C@@H](CNC(=O)c2cc(C(F)(F)F)cc(C(F)(F)F)c2)CC1 [Compound 98, tert-butyl 2-(cis-4-((3,5-bis(trifluoromethyl)benzamido)methyl)cyclohexylamino)ethylcarbamate]
2370 nM	3420 nM	CC(C)(C)NC(=O)CN[C@H]1CC[C@@H](CNC(=O)c2cccc(C(F)(F)F)c2)CC1 [Compound 182, N-(((1s,4s)-4-(2-(tert-butylamino)-2-oxoethylamino)cyclohexyl)methyl)-3-(trifluoromethyl)benzamide]
3470 nM	3860 nM	Cc1cc(CNC[C@H]2CC[C@H](NC(=O)c3cc(C(F)(F)F)cc(C(F)(F)F)c3)CC2)no1 [Compound 90, N-(trans-4-(((5-methylisoxazol-3-yl)methylamino)methyl)cyclohexyl)-3,5-bis(trifluoromethyl)benzamide]
2350 nM	650 nM	CC(C)NC(=O)CN[C@H]1CC[C@H](CNC(=O)c2cc(C(F)(F)F)cc(C(F)(F)F)c2)CC1 [Compound 74, N-((trans-4-(2-(isopropylamino)-2-oxoethylamino)cyclohexyl)methyl)-3,5-bis(trifluoromethyl)benzamide]
≤ 300 nM	524 nM	CC(C)(C)C(O)CN[C@H]1CC[C@@H](CC(=O)Nc2cc(C(F)(F)F)cc(C(F)(F)F)c2)CC1 (stereo partly drawn) [Compound 150, N-(3,5-bis(trifluoromethyl)phenyl)-2-(cis-4-(2-hydroxy-3,3-dimethylbutylamino)cyclohexyl)acetamide]
3660 nM	1660 nM	CC(C)(C)NC(=O)CN[C@H]1CC[C@H](CNC(=O)c2cccc(OC(F)(F)F)c2)CC1 [Compound 189, N-(((1r,4r)-4-(2-(tert-butylamino)-2-oxoethylamino)cyclohexyl)methyl)-3-(trifluoromethoxy)benzamide]
1580 nM	420 nM	COCC(C)(C)N(C)C(=O)CN[C@H]1CC[C@@H](CNC(=O)c2cc(F)cc(Cl)c2)CC1 [Compound 212, 3-chloro-5-fluoro-N-(((1s,4s)-4-(2-((1-methoxy-2-methylpropan-2-yl)(methyl)amino)-2-oxoethylamino)cyclohexyl)methyl)benzamide]
970 nM	1810 nM	O=C(CCC(F)(F)F)NCCN[C@H]1CC[C@H](CNC(=O)c2cc(C(F)(F)F)cc(C(F)(F)F)c2)CC1 [Compound 102, N-((trans-4-(2-(4,4,4-trifluorobutanamido)ethylamino)cyclohexyl)methyl)-3,5-bis(trifluoromethyl)benzamide]
≤ 300 nM	≥ 10000 nM	Cc1ccc(-c2csc(NC(=O)C[C@H]3CC[C@@H](NCC(O)(C(F)(F)F)C(F)(F)F)CC3)n2)cc1 [Compound 152, N-(4-p-tolylthiazol-2-yl)-2-(cis-4-(3,3,3-trifluoro-2-hydroxy-2-(trifluoromethyl)propylamino)cyclohexyl)acetamide]
1030 nM	850 nM	COc1cc(C(=O)NC[C@H]2CC[C@@H](NCCNC(=O)OC(C)(C)C)CC2)cc(C(F)(F)F)c1 [Compound 100, tert-butyl 2-(cis-4-((3-methoxy-5-(trifluoromethyl)benzamido)methyl)cyclohexylamino)ethylcarbamate]

Reference: US20090298834A1, “4-(AMINOMETHYL)CYCLOHEXANAMINE DERIVATIVES AS CALCIUM CHANNEL BLOCKERS” (priority 2008, published 2009)
